Values quoted from earlier work in patent US20130177609A1, “Compositions and Methods for Increasing Bioavailability of Topical Ophthalmic Drugs” (priority 2008, published 2013).

Conditions: cited from earlier work

Row | Compound | Approximate Solubility in Water
1 | CCc1cccc2c3c([nH]c12)C(CC)(CC(=O)O)OCC3 (stereo not drawn) [etodolac] | 0.016 mg/mL
2 | CC(C)(C)NC[C@H](O)COc1cccc2c1CCCC2=O [levobutonol] | 0.25 mg/mL
3 | C[C@@H]1C[C@H]2[C@@H]3CCC4=CC(=O)C=C[C@]4(C)[C@@]3(F)[C@@H](O)C[C@]2(C)[C@@]1(O)C(=O)CO [dexamethasone] | 0.009 mg/mL
4 | CC(C)OC(=O)CCC/C=C\C[C@@H]1[C@@H](CC[C@@H](O)CCc2ccccc2)[C@H](O)C[C@@H]1O [latanoprost] | 0.052 mg/mL
5 | NC(=O)Cc1cccc(C(=O)c2ccccc2)c1N [nepafenac] | 0.02 to 0.05 mg/mL
6 | Brc1c(NC2=NCCN2)ccc2nccnc12 [brimonidine] | 1.5 mg/mL
7 | CC(C)NCC(O)COc1ccc(CCOCC2CC2)cc1 (stereo not drawn) [betaxolol] | 0.45 mg/mL
8 | CN1C(C(=O)Nc2ccccn2)=C(O)c2ccccc2S1(=O)=O [piroxicam] | 0.03 mg/mL
9 | Nc1c(CC(=O)O)cccc1C(=O)c1ccc(Br)cc1 [bromfenac] | 0.013 mg/mL
